Laboratory results published in US4298739A, “Novel carbostyril derivatives” (priority 1977, dated 1981).

Key:
[1] = Concentration in blood of male beagle dogs; assay type: in vivo; conditions: 30 mg/kg water suspension; for concentration at 1 h / concentration at 2 h / concentration at 4 h / concentration at 6 h / concentration at 8 h / concentration at 12 h: dog, plasma, 30 mg/kg; for Concentration in blood: Beagle dog
Protocol: (§1) A water suspension of test compound was administered at the dose of 30 mg/kg to the overnight fasted male Wister rats and male beagle dogs, and after a predetermined period of time, blood was collected from said animals to obtain plasma. 2 to 3 Milliliters of 0.1 N-NaOH and 2 ml of CHCl3 were added to 1 ml of the obtained plasma, and the mixture was shaken and extracted in a shaker for 2 hours, and after centrifugal separation, the organic layer was washed with 2 ml of 0.1 N-HCl. This organic layer was then subjected to a freezing and thawing treatment, and after evaporating chloroform under nitrogen stream, the residue was redissolved in 100 μl of chloroform and spotted on a thin layer plate of "Silica Gel 60 F254 " manufactured by Merck & Co., Inc. This was developed in a chloroform: butanol mixed solvent (5:1) and determined by measuring the spots with same Rf value as the test compound according to the absorbance method by using Shimazu CS-910 Thin Layer Chromato-scanner,and therefrom the concentration (μg/ml) of test compound A in blood was determined.

rabbit platelet [2] = experiment: Collagen-induced aggregation in rabbit platelets (AG-II Aggregometer); assay type: cell-based; conditions: Oryctolagus cuniculus, Platelet, read-out: Inhibition effect on collagen induced aggregation in rabbit platelet; for inhibition at 10 µM (stock): 10^-5 mole; for inhibition at 1 µM (stock): 10^-6 mole; for inhibition at 100 µM (stock): 10^-4 mole
Protocol: (§2) The platelet aggregation inhibitory effect is measured by using AG-II Aggregometer (manufactured by Bryston Manufacturing Co.). The blood sample used for the test is a 1/9 (by volume) mixture of sodium citrate and whole blood collected from rabbit. Said sample is subjected to 10-minute centrifugal separation at 1,000 r.p.m. to obtain a platelet rich plasma (PRP). The thus obtained PRP is separated, and the remaining blood sample is further subjected to 15-minute centrifugal separation at 3,000 r.p.m. to obtain a platelet poor plasma (PPP).
(§3) The number of platelets in the PRP is counted by the Brecher-Clonkite Method, and the PRP is diluted with the PPP to prepare a PRP sample with platelet concentration of 300,000/mm^3 for the adenosine diphosphate (ADP)-induced aggregation test. There is also prepared a PRP sample with platelet concentration of 450,000/mm^3 for the collagen-induced aggregation test.
(§4) 0.6 ml of said PRP sample is added into 0.01 ml of a solution of a test compound of a predetermined concentration and the mixture is placed in a 37° C. thermostat for one minute. Then 0.07 ml of an ADP or collagen solution is added to the mixture. Transmittance of this mixture is determined and the change of transmittance is recorded by using the aggregometer at stirrer speed of 1,100 r.p.m. In this test, Auren Beronal buffer (pH 7.35) is used for the preparation of the ADP or collagen solution. ADP is adjusted to a concentration of 7.5×10^-5 M, and the collagen solution is prepared by triturating 100 mg of collagen with 5 ml of said buffer and the supernatant is used as collagen inducer. Adenosine and acetylsalicylic acid are used as controls for the ADP-induced aggregation test and the collagen-induced aggregation test, respectively. The platelet aggregation inhibitory effect is measured in terms of percent inhibition with respect to the aggregation rate of the controls. The aggregation rate is calculated from the following formula:
(§5) Aggregation rate=(c-a)/(b-a)×100
(§6) b: transmittance of PRP containing a test compound and an aggregation inducer
(§7) The inhibitory effect of the tested compounds on collagen-induced aggregation in rabbit platelets is shown in Table 1, and such effect on ADP-induced aggregation is shown in Table 2. The compounds tested are as follows.

[3] = Acute toxicity test, oral administration to mice; assay type: in vivo; conditions: mouse, in vivo, Male mice
Protocol: The test compounds were administered orally to the mice and LD50 (mg/kg) of the compounds was determined.

[4] = Concentration in blood of male Wister rats; assay type: in vivo; conditions: 30 mg/kg water suspension; for concentration at 1 h / concentration at 2 h / concentration at 4 h / concentration at 6 h / concentration at 12 h / concentration at 8 h: rat, plasma, 30 mg/kg; for Concentration in blood: Rat
Protocol: as §1

rabbit platelet [5] = experiment: ADP-induced aggregation in rabbit platelets (AG-II Aggregometer); assay type: cell-based; conditions: Oryctolagus cuniculus, Platelet, read-out: Inhibition effect on ADP-induced aggregation in rabbit platelet; for inhibition at 100 µM (stock): 10^-4 mole; for inhibition at 10 µM (stock): 10^-5 mole; for inhibition at 1 µM (stock): 10^-6 mole
Protocol: as §2, §3, §4, §5, §6, §7

Compound	concentration at 1 h ([1]; 1 hr.) [ng/mL]	concentration at 2 h ([1]; 2 hr.) [ng/mL]	concentration at 4 h ([1]; 4 hr.) [ng/mL]	concentration at 6 h [1] [ng/mL]	concentration at 8 h [1] [ng/mL]	concentration at 12 h [1] [ng/mL]	inhibition at 10 µM (stock) (rabbit platelet [2]) [%]	inhibition at 1 µM (stock) (rabbit platelet [2]) [%]	LD50 [3] [mg/kg]	concentration at 1 h [4] [ng/mL]	concentration at 2 h ([4]; 2 hr.) [ng/mL]	concentration at 4 h ([4]; 4 hr.) [ng/mL]	concentration at 6 h [4] [ng/mL]	concentration at 12 h [4] [ng/mL]	inhibition at 100 µM (stock) (rabbit platelet [5]) [%]	inhibition at 10 µM (stock) (rabbit platelet [5]) [%]	inhibition at 1 µM (stock) (rabbit platelet [5]) [%]	inhibition at 100 µM (stock) (rabbit platelet [2]) [%]	concentration at 8 h [4] [ng/mL]	Concentration in blood ([1]; 2 hr.) [ng/mL]	also measured
CC1CCCCC1N(C)C(=O)CCCOc1ccc2[nH]c(=O)ccc2c1 (centres unmarked) [compound 1, 6-{3-[N-Methyl-N-(2-methylcyclohexyl)aminocarbonyl]propoxy}carbostyril]	280	310	210	130	80	50	100	100	> 1000	1050	1620	940	530	480	100	73	42.4	–	–	–	inhibition at 0.1 µM (stock) (rabbit platelet [2]; 10^-7 mole): 21.1%; inhibition at 0.1 µM (stock) (rabbit platelet [5]; 10^-7 mole): 4.3%
O=C1CCc2cc(OCCCC(=O)N(C3CCCCC3)C3CCCCC3)ccc2N1 [compound 18, 6-[3-(N,N-Dicyclohexylaminocarbonyl)propoxy]-3,4-dihydrocarbostyril]	360	230	320	170	130	60	59.4	50	> 1000	1320	1740	1020	690	420	86.4	37.5	12.6	87.5	560	–	–
CCN(C(=O)CCCOc1ccc2[nH]c(=O)ccc2c1)c1ccccc1 [compound 20, 6-[3-(N-Ethylanilinocarbonyl)propoxy]carbostyril]	320	–	–	80	50	–	76.3	43.2	> 1000	950	1370	920	460	280	82.5	31.7	13.5	91.3	–	–	–
CN(C(=O)CCCOc1cccc2c1CCC(=O)N2)C1CCCCC1 [compound 23, 5-[3-(N-Methyl-N-cyclohexylaminocarbonyl)propoxy]-3,4-dihydrocarbostyril]	430	290	210	140	50	70	58.7	13.5	> 1000	1530	2240	940	540	520	73.6	26.1	8.7	76.5	390	–	–
CCOC(=O)CCCOc1ccc2c(c1)CCC(=O)N2 [compound 29, 6-(3-Ethoxycarbonylpropoxy)-3,4-dihydrocarbostyril, reference compound]	10	–	–	–	–	–	38	8	> 1000	10	–	–	–	–	100	–	10	–	–	0	Concentration in blood ([1]; 4 hr.): 0 ng/mL; Concentration in blood ([4]; 2 hr.): 0 ng/mL; Concentration in blood ([4]; 4 hr.): 0 ng/mL
CCOC(=O)CCCOc1ccc2[nH]c(=O)ccc2c1 [compound 34, 6-(3-Ethoxycarbonylpropoxy)carbostyril, reference compound]	–	–	–	–	–	–	86	18	> 1000	10	–	–	–	–	100	90	25	100	–	0	Concentration in blood ([1]; 1 hr.): 0 ng/mL; Concentration in blood ([4]; 2 hr.): 0 ng/mL; Concentration in blood ([4]; 4 hr.): 0 ng/mL
